Experimental data reported in patent US12065435B2, “Compounds for the treatment of glycogen storage disorders” (HADASIT MEDICAL RESEARCH SERVICES AND DEVELOPMENT LTD., priority 2017, dated 2024).

Tests used:
[1] = test system: polyglucosan body (PB) in APBD patient-derived fibroblasts; assay: High content (image-based) PAS screening assay for polyglucosan bodies; format: cell-based, human; details: 0, 1, 5, 10 and 50 μM
Procedure: All the steps of the assay were performed automatically using a Freedom Evo 150 liquid handling robot (Tecan). APBD patient-derived fibroblasts were seeded at a density of 800 cells/well in DMEM (Gibco) supplemented with 1 mM sodium pyruvate (Gibco), 1% antibiotics (Biological Industries, Israel) and 5% fetal bovine serum (Hyclone) into 384 well microclear plates (Greiner). The plates were transferred by the robotic arm (RoMa) into an automated incubator (Liconic), integrated with the robotic system, where they were incubated at 37° C. with 5% CO2. Following 24 h incubation, the medium was replaced by the robot using medium supplemented with 10 μM of each screened compound (0.1% DMSO final concentration, all prepared by the robot). The screened compounds were part of the Diverset CL collection purchased from ChemBridge (10,084 out of 50,000 molecules).
Next, these cells were cultured for another 24 h in the automated incubator, and, using the robot, washed them with PBS (Biological Industries, Israel), the cells were fixed with 4% paraformaldehyde (PFA), washed again with PBS, neutralized the previously added PFA by ammonium chloride (Sigma Aldrich), washed with PBS, permeabilized with 0.1% Triton X-100 (Sigma Aldrich), and washed again with PBS.
Following this, a robot was used to treat the fixed cells with 0.5 g/dl diastase (or amylase, Sigma Aldrich) for 5 minutes at 37° C. in the automated incubator, wash with PBS, stained with PAS (Merck), Hoechst 33342 (Sigma Aldrich) and Cell Mask Deep Red (Molecular Probes) and wash with PBS. Images of stained cells were then acquired by the IN Cell Analyzer 2000 (GE Healthcare) and analyzed using the IN Cell Investigator (GE Healthcare) applying an algorithm that quantified the PAS signal within each Cell Mask stained cell.
Images were segmented based on the Cell Mask signal which was linked with the segmentation of the nuclei, employing an empirically established sensitivity and kernel size for allowing the best segmentation. Once these nucleus-cytoplasm complex objects were selected, the software calculated the number of these objects (cell number) as well as the intensity of the PAS signal within each of them. All the assay parameters (including the acquisition exposure times, objective, and the analysis parameters) were kept constant throughout the whole screening campaign for allowing comparison of signals obtained from different batches of assay within the campaign.
The assay was performed as mentioned above, but with compound concentrations of 1, 5, 10, and 50 μM, instead of a constant concentration of 10 μM.
The discarded data was presumably associated with cells affected by toxic compounds. In the remaining data, the measured population mean PB intensity was normalized. Based on a series of images used for training, compounds were considered as positive only where following treatment the normalized PB mean intensity was at least under −1.2 z-score of the scale. Following this approach, 85 potential hits out of the 10,084 screened compounds were selected (0.84%).

recombinant human GS1 = target: T1, recombinant human GS1 (Homo sapiens, UniProt P13807); assay: In vitro GS activity assay; format: biochemical; details: 50 μM; unpaired t-tests, p<0.05
T1 sequence (P13807 1-737): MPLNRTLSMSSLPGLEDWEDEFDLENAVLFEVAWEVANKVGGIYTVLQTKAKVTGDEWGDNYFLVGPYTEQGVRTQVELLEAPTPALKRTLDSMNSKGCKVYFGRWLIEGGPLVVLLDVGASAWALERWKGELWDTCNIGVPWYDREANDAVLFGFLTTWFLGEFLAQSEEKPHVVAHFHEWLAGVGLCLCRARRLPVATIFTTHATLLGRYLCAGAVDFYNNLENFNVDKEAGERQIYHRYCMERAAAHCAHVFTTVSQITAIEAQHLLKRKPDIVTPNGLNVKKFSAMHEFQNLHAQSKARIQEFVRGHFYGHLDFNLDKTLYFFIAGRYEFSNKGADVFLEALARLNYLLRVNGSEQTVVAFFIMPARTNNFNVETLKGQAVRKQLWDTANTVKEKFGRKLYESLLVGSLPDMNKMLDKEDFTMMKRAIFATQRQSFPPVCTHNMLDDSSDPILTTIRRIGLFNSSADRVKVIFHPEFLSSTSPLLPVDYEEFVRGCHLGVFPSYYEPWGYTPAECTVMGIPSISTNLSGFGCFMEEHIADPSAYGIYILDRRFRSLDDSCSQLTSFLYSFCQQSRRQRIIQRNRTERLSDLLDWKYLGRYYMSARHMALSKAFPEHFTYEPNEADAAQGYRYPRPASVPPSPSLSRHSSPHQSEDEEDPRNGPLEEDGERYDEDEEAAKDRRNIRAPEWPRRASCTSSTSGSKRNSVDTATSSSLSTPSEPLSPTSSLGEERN
Procedure: The reaction was carried out in 96-well plates containing 50 μl of reaction volume (50 mM Tris, pH8, 20 mM EDTA, 25 mM KF, 2 mg/ml glycogen, 10 mM Glucose-6-Phosphate, 1.65 mM UDP[14C]glucose and 100 mM UDP-glucose). To test the inhibitory effect of the hits, each one was included in the reaction at a final concentration of 50 μM. The reaction was initiated with the addition of 20 nM recombinant human GS1, followed by incubation at 37° C. for 30 min. The reaction was then stopped with the addition of 100 μl cold 100% ethanol, and the total suspension was transferred into a 96-well filter plate. Vacuum was applied to remove the ethanol. Five washing steps with 150 μl of cold 66% ethanol then fully removed any non-incorporated UDP[14C]glucose, while the labelled glycogen stayed on the well filters. The plate was dried at 37° C. incubator for 30 min. 50 μl of scintillation fluid was added to each well and the plate was read for 14C signal on Microplate scintillation and luminescence counter Top Count (Perkin Elmer).

O=C(CN1CCOC1=O)N1CC[C@@H](c2ccc3ccccc3c2)[C@H](O)C1 (relative stereo) [UDP #5, 3-{2-[(3S*,4S*)-3-hydroxy-4-(2-naphthyl)piperidin-1-yl]-2-oxoethyl}-1,3-oxazolidin-2-one]
dose response of diastase resistant cell associated mean PAS intensity normalized by z-score [1]: concentration dependent

Cn1nc(-c2cccs2)cc1C(=O)N1[C@@H]2CC[C@H]1CNC(=O)C2 (relative stereo) [UDP #9, (1S*,6R*)-9-{[1-methyl-3-(2-thienyl)-1H-pyrazol-5-yl]carbonyl}-3,9-diazabicyclo[4.2.1]nonan-4-one]
dose response of diastase resistant cell associated mean PAS intensity normalized by z-score [1]: lowered mean normalized PAS intensity in a non-dose responding manner

CCO[C@H]1COC[C@@H]1NC(=O)Cc1c(C)nc(N)nc1C (relative stereo) [UDP #13, 2-(2-amino-4,6-dimethylpyrimidin-5-yl)-N-[(3S*,4R*)-4-ethoxytetrahydrofuran-3-yl]acetamide]
dose response of diastase resistant cell associated mean PAS intensity normalized by z-score [1]: concentration dependent

Oc1ccc(-c2cc(NCc3cccnc3)nc3[nH]ccc23)c(F)c1 [UDP #1, 3-fluoro-4-{6-[(pyridin-3-ylmethyl)amino]-1H-pyrrolo[2,3-b]pyridin-4-yl}phenol]
dose response of diastase resistant cell associated mean PAS intensity normalized by z-score [1]: lowered mean normalized PAS intensity in a non-dose responding manner

COc1cc(F)c(CN2CCN(c3cncc(C(N)=O)n3)CC2)c(F)c1 [UDP #2, 6-[4-(2,6-difluoro-4-methoxybenzyl)piperazin-1-yl]pyrazine-2-carboxamide]
dose response of diastase resistant cell associated mean PAS intensity normalized by z-score [1]: concentration dependent

CC(C)CCN1CCNC(=O)C1CC(=O)N1CCc2[nH]nc(C3CC3)c2C1 (centres unmarked) [UDP #3, 3-[2-(3-cyclopropyl-1,4,6,7-tetrahydro-5H-pyrazolo[4,3-c]pyridin-5-yl)-2-oxoethyl]-4-(3-methylbutyl)-2-piperazinone]
dose response of diastase resistant cell associated mean PAS intensity normalized by z-score [1]: lowered mean normalized PAS intensity in a non-dose responding manner

CC(C)n1ccnc1CN1CCC(c2[nH]ncc2-c2cccc(F)c2)CC1 [UDP #6, 4-[4-(3-fluorophenyl)-1H-pyrazol-5-yl]-1-[(1-isopropyl-1H-imidazol-2-yl)methyl]piperidine]
dose response of diastase resistant cell associated mean PAS intensity normalized by z-score [1]: concentration dependent | effect on GS activity (direction of change) (recombinant human GS1): increasing

Cc1nc(C(C)C)cc(N2CCN(Cc3ncccc3C)CC2)n1 [UDP #7, 4-isopropyl-2-methyl-6-{4-[(3-methylpyridin-2-yl)methyl]piperazin-1-yl}pyrimidine]
dose response of diastase resistant cell associated mean PAS intensity normalized by z-score [1]: lowered mean normalized PAS intensity in a non-dose responding manner | effect on GS activity (direction of change) (recombinant human GS1): increasing

CC1CCC(=O)N1c1ccc(-n2cnnc2)cc1 (centres unmarked) [UDP #8, 5-methyl-1-[4-(4H-1,2,4-triazol-4-yl)phenyl]pyrrolidin-2-one]
dose response of diastase resistant cell associated mean PAS intensity normalized by z-score [1]: concentration dependent | effect on GS activity (direction of change) (recombinant human GS1): increasing

Cc1ccc2c(c1)c(CNC(=O)c1ccccc1C1CCNC1)nn2C (centres unmarked) [UDP #10, N-[(1,5-dimethyl-1H-indazol-3-yl)methyl]-2-(3-pyrrolidinyl)benzamide]
dose response of diastase resistant cell associated mean PAS intensity normalized by z-score [1]: lowered mean normalized PAS intensity in a non-dose responding manner | effect on GS activity (direction of change) (recombinant human GS1): except for compound #10, have significantly changed GS activity

CCc1ccc(CN(C)C(=O)c2ccc3c(c2)no[n+]3[O-])nc1 [UDP #11, N-[(5-ethylpyridin-2-yl)methyl]-N-methyl-2,1,3-benzoxadiazole-5-carboxamide 1-oxide]
dose response of diastase resistant cell associated mean PAS intensity normalized by z-score [1]: concentration dependent

O=C(c1ccoc1)N1CCOc2c(O)cc(-c3cccc(Cl)c3)cc2C1 [UDP #12, 7-(3-chlorophenyl)-4-(3-furoyl)-2,3,4,5-tetrahydro-1,4-benzoxazepin-9-ol]
dose response of diastase resistant cell associated mean PAS intensity normalized by z-score [1]: concentration dependent | effect on GS activity (direction of change) (recombinant human GS1): increasing

CC(C)(C)c1ccc(O)c(-n2cnnc2)c1 [UDP #14, 4-tert-butyl-2-(4H-1,2,4-triazol-4-yl)phenol]
dose response of diastase resistant cell associated mean PAS intensity normalized by z-score [1]: concentration dependent

C1CCc2c(n[nH]c2CCNC2CCC3(CCNCC3)CC2)C1 [UDP #15]
dose response of diastase resistant cell associated mean PAS intensity normalized by z-score [1]: concentration dependent

COc1ccc(-c2ncc(C)c(N)n2)c(C)c1 [UDP #16, 2-(4-methoxy-2-methylphenyl)-5-methylpyrimidin-4-amine]
dose response of diastase resistant cell associated mean PAS intensity normalized by z-score [1]: lowered mean normalized PAS intensity in a non-dose responding manner

Cc1c(NC(=O)c2ccco2)cccc1C(=O)N1CCC2(CCCNC2)C1 (centres unmarked) [UDP #17, N-[3-(2,7-diazaspiro[4.5]dec-2-ylcarbonyl)-2-methylphenyl]-2-furamide]
dose response of diastase resistant cell associated mean PAS intensity normalized by z-score [1]: concentration dependent

Cc1ccc(NC(=O)CCn2cnc(-c3ccccc3)c2C2CCOC2)c(C)c1 (centres unmarked) [UDP #18, N-(2,4-dimethylphenyl)-3-[4-phenyl-5-(tetrahydrofuran-3-yl)-1H-imidazol-1-yl]propanamide]
dose response of diastase resistant cell associated mean PAS intensity normalized by z-score [1]: lowered mean normalized PAS intensity in a non-dose responding manner | effect on GS activity (direction of change) (recombinant human GS1): increasing
